# Ends that are not written are not given here. spacer = not defined here
# Tests used:
# [1] = test system: dermal fibroblasts; assay: Biotinylated peptide cell binding specificity by flow cytometry (Neutravidin-PE); design: species or system human; settings: 30 min at 4° C., FIG. 15
# From the text: (§1) The synthetic biotinylated cell binding peptide SEQ ID NO: 4 was examined for its ability to specifically bind MSCs compared to a number of other cells types including adipose-derived mesenchymal stem cells (ASCs), dermal fibroblasts, rodent MSCs, red blood cells, monocytes, lymphocytes and granulocytes. The cell binding peptide was biotinylated as described herein at Example 2. Cultured cells of each type were either purchased (ASCs and dermal fibroblasts) or isolated from rodent bone marrow (rodent MSCs) or human blood. Cells were first harvested and resuspended at 10^6/mL in PBS+2% fetal bovine serum (FBS). An aliquot of cells (50 μL) was incubated in 50 μL of peptide solution (25 μM in PBS+FBS) for 30 min at 4° C. Cells were then washed twice in PBS+FBS with 300×g centrifugation for 5 min between washes. Fluorescently-tagged neutravidin (Neutravidin-PE from INVITROGEN) was then added to the cells to label biotinylated peptide bound to cells. Neutravidin-PE was diluted 1:250 from stock and applied at 50 μL to cells. Cells were then washed in PBS+FBS, and acquired on a BD […]. Peptide reactivity was then measured as percent positivity relative to Neutravidin-PE staining without the addition of biotinylated peptide.
# [2] = test system: MSCs captured from bone marrow; assay: Osteoblast differentiation of captured MSCs (Alizarin Red S); format: cell-based, human; settings: 14 days in osteoblast differentiation medium, FIG. 20 C/D
# Description: Osteoblast differentiation. For osteogenic differentiation, the MSCs present in the […] column eluants (see Example 6) were cultured for 14 days in complete medium supplemented with 0.1 μM dexamethasone, 50 μM ascorbate-2-phosphate, 10 mM β-glycerophosphate, and 1% antibiotic/antimycotic. Calcium mineralization was measured by Alizarin Red S (SIGMA) staining to reveal mineralizing osteoblasts (see FIG. 20, panel C (undifferentiated MSCs) and panel D (osteoblast differentiated MSCs)).
# [3] = test system: human MSCs from bone marrow aspirate; assay: Capture of cultured MSCs with biotinylated peptide on […] streptavidin microbeads in LS columns; format: cell-based; settings: 160,000 cultured human MSCs, peptide 20 μM on streptavidin microbeads, FIG. 16
# Description: In this experiment the ability of the biotinylated cell binding peptide SEQ ID NO: 4 to capture human MSCs from a homogeneous cultured cell population was examined. The cell binding peptide SEQ ID NO: 4 was biotinylated as described herein at Example 2. The cell binding peptide SEQ ID NO: 4, and a non-binding control peptide, were added to separate 300 μl volumes of […] BIOTEC Streptavidin microbeads at a concentration of 20 μM. These beads are made from iron filings, coated with a dextran coating which is functionalized with streptavidin moieties. Peptide was incubated with beads for 45 min on ice. The 300 μl of peptide coated microbeads were added to pre-equilibrated LS columns outside of the magnetic field to evenly distribute the magnetic beads throughout the columns. Columns were then placed into a magnetic field, and excess peptide was washed away with buffer while retaining the peptide coated microbeads. Cultured and expanded human MSCs from bone marrow aspirate (160,000 cells; LONZA) were added to each LS column and allowed to pass through by gravity flow. Flowthrough was collected and cycled through the columns 5 times, after which the columns were washed with 5 ml buffer. […] The collected flowthrough with 5 ml wash and eluted cells were spun down, resuspended in a smaller volume, and counted by hemacytometer (see FIG. 16). […]
# [4] = test system: MSCs captured from bone marrow aspirate; assay: Immunoreactivity of captured cells for surface antigens; format: cell-based, human; settings: CD29(+), CD44(+), CD73(+), CD166(+), CD90(+), CD45(−), CD34(−)
# Description: (§2) This experiment was performed to examine the ability of cell binding peptide SEQ ID NO: 4 to capture MSCs directly from bone marrow aspirate in comparison to two separate antibodies against the CD105 I antigen (CD105) and the MSCA-1 stem cell antigen (MSCA-1). This experiment employed biotinylated peptides with streptavidin-coated […] magnetic beads. The peptides were biotinylated as described herein at Example 2. […] For the antibody capture experiment, magnetic beads having covalently attached CD105 or MSCA-1 antibody were employed ([…]). Prior to incubation with the peptides and antibodies, bone marrow aspirate (BMA) was mixed with 5 volumes of 10 mM ammonium chloride for 1-2 min at room temperature to lyse red blood cells. The lysate was centrifuged for 5 min at 300×g and the supernatant discarded. The cell pellet was washed with wash buffer (PBS+0.5% bovine serum albumin+0.5 mM EDTA) and cells were resuspended in […] peptide at a concentration of 10^8 per mL. For peptide binding studies, the cell suspension was incubated with the biotinylated peptides for 30 min at 4° C. to allow for binding. After incubation, cells were spun down at 300×g for 5 min, and peptide solution was aspirated. Cells were then rinsed twice with wash buffer, with centrifugation between washes. […] Colony forming units (CFUs) were counted after 14 days in culture. […]
# [5] = test system: MSCs captured from bone marrow; assay: Adipocyte differentiation of captured MSCs (Oil Red O); format: cell-based, human; settings: 21 days in adipocyte differentiation medium, FIG. 20 A/B
# Description: Adipocyte differentiation. After capture of MSCs using cell binding peptide SEQ ID NO: 4 with the […] magnetic system according to Example 6, the ability of the captured cells to differentiate into an adipocyte lineage was examined. The MSCs present in the […] column eluants (see Example 6) were cultured for 21 days in complete medium (DMEM, 10% FBS, 100 units/mL penicillin, 100 μg/mL streptomycin, and 2 mM glutamine) supplemented with 0.5 mM isobutyl methylxanthine, 1 μM dexamethasone, 10 μM insulin, 200 μM indomethacin, and 1% antibiotic/antimycotic. Following the 21 day incubation, the cells were fixed in 4% paraformaldehyde in PBS for 15 minutes, washed in 60% isopropanol for 5 minutes, and stained with Oil Red O (SIGMA) for 10 minutes to determine the extent of adipogenesis (see FIG. 20, panels A (undifferentiated MSCs) and panel B (adipocyte differentiated MSCs)). The image of the adipose differentiated cells (FIG. 20, panel B) contains a larger magnification inset where the lipid vacuoles are clearly visible.
# [6] = test system: MSCs captured from bone marrow; assay: Chondrocyte differentiation of captured MSCs (aggrecan immunostaining); format: cell-based, human; settings: 24 days in CHONDRODIFF medium, FIG. 21
# Description: Chondrocyte differentiation. To examine chondrocyte differentiation, the MSCs present in the […] column eluants (see Example 6) were pelleted by centrifugation at 150×g for 5 minutes. Cells were washed once with 1 ml MACS NH CHONDRODIFF Medium without disturbing the pellet. Cells were spun again and 1 mL CHONDRODIFF Medium was added to each pellet. Every third day, medium was aspirated and replaced with fresh pre-warmed medium. After 24 days in culture, cells exposed to CHONDRODIFF medium formed cartilage plugs or nodules, whereas control cells formed only loose or small nodules. Cells were washed once with PBS and fixed in neutral buffered formalin overnight. Sections were embedded in paraffin and sectioned at 5 microns. Sections were examined by hemotoxylin and eosin staining (data not shown). Sections were further examined by immunostaining for aggrecan, a major structural component of cartilage. In FIG. 21, sections from the periphery (panels A and B) or center (panels C and D) were incubated with an antibody against aggrecan (ABCAM) (panels B and D) or with secondary detection reagents only as a control (panels A and C), then counterstained with DAPI to reveal cell nuclei. […] Control images of captured cells grown in the absence of differentiation medium could not be taken due to the small and loose nature of nodules.
# [7] = test system: human MSCs; assay: Biotinylated peptide cell binding specificity by flow cytometry (Neutravidin-PE); settings: 30 min at 4° C., FIG. 15
# From the text: as §1
# [8] = test system: human ASCs; assay: as above; settings: 30 min at 4° C., FIG. 15
# From the text: as §1
# [9] = test system: MSCs directly from bone marrow aspirate; assay: Capture of MSCs from bone marrow aspirate, colony forming units after 14 days; format: cell-based, human; settings: streptavidin-coated MILTENYI beads, FIG. 18
# Description: as §2
# [10] = test system: human MSCs; assay: Capture of MSCs from a mixed cell population with peptide on CELLECTION magnetic beads; format: cell-based; settings: starting mixture 38% IM9, 56% U937, 4% MSC; FIG. 17C
# From the text: In this experiment, biotinylated cell binding peptide, SEQ ID NO: 16, was attached to CELLECTION magnetic beads. The CELLECTION beads have streptavidin coupled to a magnetic particle through a DNA linker. Three different cell types, human MSCs, IM-9, and U937 cells were differentially labeled with […] dye and mixed in a ratio such that the MSCs represented ˜4% of the starting cell mixture (the percentage of each cell type in the starting mixture was 38% IM9, 56% U937, and 4% MSC). The cell binding peptide, SEQ ID NO: 16, was biotinylated as described herein at Example 2, as was a general cell binding peptide for use as a control peptide in the experiment. Magnetic particles with no peptide attached, as well as magnetic beads having attached either the cell binding peptide, SEQ ID NO: 16, or the control peptide were tested for their ability to capture human MSCs. The starting cell mixture was incubated with magnetic beads having either attached peptide or no peptide, the beads were washed, and the captured cells were released from the beads by DNase treatment. The cells were measured by flow cytometry histograms shown in 17A-17C. The magnetic beads without peptide captured little or no cells (FIG. 17B). The magnetic beads with attached cell binding peptide SEQ ID NO: 16 captured a cell population that was 96% MSCs (FIG. 17C).
Sequence,binding to dermal fibroblasts (percent positivity relative to Neutravidin-PE staining) [1],osteogenic differentiation of captured MSCs [2],capture of the MSCs [3],immunoreactivity of isolated cells compared with CD105 isolated cells [4],adipogenesis of captured MSCs [5],aggrecan in nodules formed from captured MSCs [6],binding to human MSCs (percent positivity relative to Neutravidin-PE staining) [7],binding to human ASCs (percent positivity relative to Neutravidin-PE staining) [8],MSC capture (CFUs after 14 days in culture) [9],MSCs in captured cell population [10]
"SSFWDVCQGDGTCYGGGSR (SSFWDVCQGDGTCYGGGSR-{spacer-biotin}; cysteine pairing not given here; reading uncertain; also: C-terminal spacer not given here) [SEQ ID NO: 4, tested biotinylated with a C-terminal spacer]",high binding,osteogenic pathway remains intact,approximately 70%,no changes were observed,adipogenesis pathway remains intact,aggrecan could be detected,high binding,high binding,as efficient as capture by either of the CD105 or MSCA-1 antibodies,–
"SSFRFGPLGTWNYPSTDNAE (also: biotin, position not given here, on magnetic beads) [SEQ ID NO: 16, tested biotinylated on CELLECTION magnetic beads]",–,–,–,–,–,–,–,–,–,96%

# Source: patent US20110117171A1, “IMPLANTABLE BONE GRAFT MATERIALS” (AFFINERGY, INC., priority 2009, published 2011)
